# Laboratory results reported in US9670242B2, “Tetracyclic anthraquinone derivatives” (Tianjin Hemay Bio-Tech Co., Ltd, priority 2012, dated 2017).
# Experiments:
# Type in all cases: cell-based, human
# [1] = system: 22Rv1 cells; assay: 22Rv1 cell growth inhibition test (SRB assay); conditions: growth inhibition at 222 nM, 73 h
# Experimental: 22Rv1 Cell Growth Inhibition Test (SRB Assay)
# Cell strains: 22Rv1 (human prostate cancer cell strains); SRB: 0.4% (w/v) working solution was formulated with 1% glacial acetic acid, reserved at 4° C.; antitumor compounds; DMSO.
# (§1) II. Reagents and Consumable Materials
# (§2) Culture medium: 90% RPMI-1640+10% FBS; Pancreatin (0.25% (w/v) solution was formulated with PBS, 0.53 mM of EDTA was added in the formulation); PBS; 96-well culture plate.
# (§3) 1. A plate (10 cm) of cells in logarithmic growth phase that were normally cultured was collected;
# (§4) 2. The culture solution was sucked out. The plate was washed with 5 mL of PBS once or twice;
# (§5) 3. 1.5 mL of 0.25% pancreatin was added to the plate to infiltrate the cells;
# (§6) 4. The pancreatin was sucked out. The culture plate was placed in an incubator. Digestion was carried out for about 3 min at 37° C.;
# 5. 4 mL of complete culture solution was added to the culture plate to stop the digestion. The cells were carefully scoured with micropipette (1 ml) to give a uniform single cell suspension. The suspension was implanted into a 96-well cell culture plate by 7000 cells/100 μL per well. The culture plate was incubated overnight under 5% CO2 at 37° C. In day 2, 100 μL of culture solution comprising a compound was added in each well. The plate was further incubated for 73 h under 5% CO2 at 37° C.;
# (§7) 6. The culture solution was sucked out. 100 uL of TCA fixed cells which were diluted to 10% were added to each well. The plate was kept in a refrigerator for 1 h at 4° C.
# (§8) 7. TCA stationary liquid was sucked out. Each well was washed with 150 μL of ddH2O five times;
# (§9) 8. After the stationary liquid was cleansed, the plate was dried in the air at the room temperature;
# (§10) 9. 60 μL of SRB staining solution was added in each well. The well was stained for 15 min at the room temperature;
# (§11) 10. The SRB staining solution was sucked out. Each well was washed with 150 μL of 1% glacial acetic acid five times;
# (§12) 11. After the SRB staining solution was cleansed, the plate was dried in the air at the room temperature;
# (§13) 12. 100 μL of 10 mM Tris was added in each well. The plate was vibrated to dissolve out SRB;
# (§14) 13. OD values were determined at 570 nM.
# (§15) IV. Results and Treatments
# (§16) 1. Calculation of Relative Inhibition Ratio The inhibition ratio of a compound on cell growth=(PC−n)/(PC−NC)×100%
# (§17) PC: OD values of cells after normal growth in control wells without a compound;
# (§18) n: OD values of cells after growth in test wells with a compound;
# (§19) NC: Background OD values of blank wells without a compound and cells.
# [2] = system: BxPc-3 cells; assay: BxPc-3 cell growth inhibition test (MTT assay); conditions: growth inhibition at 2000 nM, 70 h
# Experimental: BxPc-3 Cell Growth Inhibition Test (MTT Assay)
# Cell strains: BxPC-3 (human pancreatic cancer cell strains); MTT; antitumor compounds; DMSO.
# as §1, §2, §3, §4
# (§20) 3. PBS was sucked out. 1.5 mL of 0.25% pancreatin was added to infiltrate the cells;
# 4. The culture plate was placed in an incubator. Digestion was carried out for about 8 min at 37° C.;
# 5. 4.5 mL of complete culture solution was added to the culture plate to stop the digestion. The cells were carefully scoured with micropipette (1 ml) to give a uniform cell suspension. The suspension was implanted into a 96-well cell culture disc by 5000 cells/100 μL per well. The culture plate was incubated overnight under 5% CO2 at 37° C. In day 2, 100 μL of culture solution comprising a compound was added in each well. The plate was further incubated for 70 h under 5% CO2 at 37° C.;
# (§21) 6. The culture solution was sucked out;
# (§22) 7. 100 μL of serum-free culture solution containing 0.5 mg/mL MTT was added in each well. The plate was incubated for 3 h;
# (§23) 8. The culture solution was carefully sucked out;
# (§24) 9. 100 μL of DMSO was added into each well and vibrated to dissolve;
# (§25) 10. OD values were determined at 490 nM.
# as §15, §16, §17, §18, §19
# [3] = system: MDA-MB-453 cells; assay: MDA-MB-453 cell growth inhibition test (SRB assay); conditions: growth inhibition at 2000 nM, 69.5 h
# Experimental: MDA-MB-453 Cell Growth Inhibition Test (SRB Assay)
# Cell strains: MDA-MB-453 (human breast cancer cell strains); SRB: 0.4% (w/v) working solution was formulated with 1% glacial acetic acid, reserved at 4° C.; antitumor compounds; DMSO.
# as §1
# Culture medium: 90% L15+10% FBS; pancreatin (0.25% (w/v) solution was formulated with PBS, 0.53 mM of EDTA was added in the formulation); PBS; 96-well culture plate.
# as §3, §4, §5, §6
# 5. 4 mL of complete culture solution was added to the culture plate to stop the digestion. The cells were carefully scoured with micropipette (1 ml) to give a uniform single cell suspension. The suspension was implanted into a 96-well cell culture plate by 7000 cells/100 μL per well. The culture plate was incubated overnight under 5% CO2 at 37° C. In day 2, 100 μL of culture solution comprising a compound was added in each well.
# The plate was further incubated for 69.5 h under 5% CO2 at 37° C.;
# as §7, §8, §9, §10, §11, §12, §13, §14, §15, §16, §17, §18, §19
# [4] = system: NCI-H446 cells; assay: NCI-H446 cell growth inhibition test (MTT assay); conditions: growth inhibition at 222 nM, 70 h
# Experimental: NCI-H446 Cell Growth Inhibition Test (MTT Assay)
# Cell strains: NCI-H446 (human small cell lung cancer cell strains); MTT; antitumor compounds; DMSO.
# as §1, §2, §3, §4, §20
# 4. The culture plate was placed in an incubator. Digestion was carried out for about 3 min at 37° C.;
# 5. 3 mL of complete culture solution was added to the culture plate to stop the digestion. The cells were carefully scoured with micropipette (1 ml) to give a uniform cell suspension. The suspension was implanted into a 96-well cell culture disc by 4000 cells/100 μL per well. The culture plate was incubated overnight under 5% CO2 at 37° C. In day 2, 100 μL of culture solution comprising a compound was added in each well. The plate was further incubated for 70 h under 5% CO2 at 37° C.;
# as §21, §22, §23, §24, §25, §15, §16, §17, §18, §19
# [5] = system: SK-OV-3 cells; assay: SK-OV-3 cell growth inhibition test (MTT assay); conditions: growth inhibition at 667 nM, 69 h
# Experimental: SK-OV-3 Cell Growth Inhibition Test (MTT Assay)
# Cell strains: SK-OV-3 (human ovarian cancer cell strains); MTT; antitumor compounds; DMSO.
# as §1
# Culture medium: 90% McCoy's 5A+10% FBS; Pancreatin (0.25% (w/v) solution was formulated with PBS, 0.53 mM of EDTA was added in the formulation); PBS; 96-well culture plate.
# as §3, §4, §20
# 4. The pancreatin was sucked out. The culture plate was placed in an incubator. Digestion was carried out for about 5 min at 37° C.;
# 5. 4.5 mL of complete culture solution was added to the culture plate to stop the digestion. The cells were carefully scoured with micropipette (1 ml) to give a uniform cell suspension. The suspension was implanted into a 96-well cell culture disc by 4000 cells/100 μL per well. The culture plate was incubated overnight under 5% CO2 at 37° C. In day 2, 100 μL of culture solution comprising a compound was added in each well. The plate was further incubated for 69 h under 5% CO2 at 37° C.;
# as §21, §22, §23
# 9. 100 μL of DMSO was added in each well and vibrated to dissolve;
# as §25, §15, §16, §17, §18, §19
compound,measurement,setting,value
COc1cccc2c1C(=O)c1c(O)c3c(c(O)c1C2=O)CC(O)(C(=O)COC(=O)CCC(=O)NCc1ccccn1)CC3OC1CC(n2cccc2)C(O)C(C)O1 (stereo not drawn) [Example 30],Inhibition Ratio (%),[1],62.3%
same,Inhibition Ratio (%),[2],85.2%
same,Inhibition Ratio (%),[3],79.9%
same,Inhibition Ratio (%),[4],61%
same,Inhibition Ratio (%),[5],59.9%
COc1cccc2c1C(=O)c1c(O)c3c(c(O)c1C2=O)CC(O)(C(=O)COC(=O)CCC(=O)NCCc1ccncc1)CC3OC1CC(n2cccc2)C(O)C(C)O1 (stereo not drawn) [Example 32],Inhibition Ratio (%),[1],61.7%
same,Inhibition Ratio (%),[2],83.4%
same,Inhibition Ratio (%),[3],78.3%
same,Inhibition Ratio (%),[4],59.3%
same,Inhibition Ratio (%),[5],59.7%
COc1cccc2c1C(=O)c1c(O)c3c(c(O)c1C2=O)CC(O)(C(=O)COC(=O)CCC(=O)NCCc1ccccn1)CC3OC1CC(n2cccc2)C(O)C(C)O1 (stereo not drawn) [Example 34],Inhibition Ratio (%),[1],63.3%
same,Inhibition Ratio (%),[2],84%
same,Inhibition Ratio (%),[3],80.5%
same,Inhibition Ratio (%),[4],60.7%
same,Inhibition Ratio (%),[5],59.4%
COc1cccc2c1C(=O)c1c(O)c3c(c(O)c1C2=O)CC(O)(C(=O)COC(=O)CCCC(=O)NCCc1ccccn1)CC3OC1CC(n2cccc2)C(O)C(C)O1 (stereo not drawn) [Example 35],Inhibition Ratio (%),[1],58.5%
same,Inhibition Ratio (%),[2],81.3%
same,Inhibition Ratio (%),[3],77.1%
same,Inhibition Ratio (%),[4],57.2%
same,Inhibition Ratio (%),[5],57.8%
COc1cccc2c1C(=O)c1c(O)c3c(c(O)c1C2=O)CC(O)(C(=O)COC(=O)CCC(=O)NCCc1ccc(S(N)(=O)=O)cc1)CC3OC1CC(n2cccc2)C(O)C(C)O1 (stereo not drawn) [Example 38],Inhibition Ratio (%),[1],56.3%
same,Inhibition Ratio (%),[2],82.4%
same,Inhibition Ratio (%),[3],75.8%
same,Inhibition Ratio (%),[4],62.6%
same,Inhibition Ratio (%),[5],67.6%
CCN1CCN(C(=O)CCC(=O)OCC(=O)C2(O)Cc3c(O)c4c(c(O)c3C(OC3CC(n5cccc5)C(O)C(C)O3)C2)C(=O)c2c(OC)cccc2C4=O)CC1 (stereo not drawn) [Example 40],Inhibition Ratio (%),[1],50.5%
same,Inhibition Ratio (%),[2],76.5%
same,Inhibition Ratio (%),[3],73%
same,Inhibition Ratio (%),[4],49%
same,Inhibition Ratio (%),[5],47.9%
COc1cccc2c1C(=O)c1c(O)c3c(c(O)c1C2=O)CC(O)(C(=O)COC(=O)CCC(=O)N1CCN(CCCN(C)C)CC1)CC3OC1CC(n2cccc2)C(O)C(C)O1 (stereo not drawn) [Example 44],Inhibition Ratio (%),[1],48.5%
same,Inhibition Ratio (%),[2],78.5%
same,Inhibition Ratio (%),[3],68.5%
same,Inhibition Ratio (%),[4],46.3%
same,Inhibition Ratio (%),[5],52.3%
COc1cccc2c1C(=O)c1c(O)c3c(c(O)c1C2=O)CC(O)(C(=O)COC(=O)CCC(=O)NCCO)CC3OC1CC(n2cccc2)C(O)C(C)O1 (stereo not drawn) [Example 60],Inhibition Ratio (%),[1],52.9%
same,Inhibition Ratio (%),[2],83.4%
same,Inhibition Ratio (%),[3],76.3%
same,Inhibition Ratio (%),[4],52.5%
same,Inhibition Ratio (%),[5],58.9%
COc1cccc2c1C(=O)c1c(O)c3c(c(O)c1C2=O)CC(O)(C(=O)COC(=O)CCC(=O)N(CCO)CCO)CC3OC1CC(n2cccc2)C(O)C(C)O1 (stereo not drawn) [Example 64],Inhibition Ratio (%),[1],54.8%
same,Inhibition Ratio (%),[2],83.7%
same,Inhibition Ratio (%),[3],73.5%
same,Inhibition Ratio (%),[4],51.6%
same,Inhibition Ratio (%),[5],65.9%
